Where two headings read alike, the source gives them in different places.
Legend:
Assay type in all cases: binding
[1] = biological target: T1, HeLa cell extract proteins (Homo sapiens, UniProt Q99873)
T1 construct: endogenous in cells; host or cells: HeLa cell extract

[2] = biological target: T2, HeLa cell extract proteins (Homo sapiens, UniProt P30876)
T2 construct: endogenous in cells; host or cells: HeLa cell extract

[3] = biological target: T3, HeLa cell extract proteins (Homo sapiens, UniProt P07339)
T3 construct: endogenous in cells; host or cells: HeLa cell extract
T3 sequence (P07339 65-412): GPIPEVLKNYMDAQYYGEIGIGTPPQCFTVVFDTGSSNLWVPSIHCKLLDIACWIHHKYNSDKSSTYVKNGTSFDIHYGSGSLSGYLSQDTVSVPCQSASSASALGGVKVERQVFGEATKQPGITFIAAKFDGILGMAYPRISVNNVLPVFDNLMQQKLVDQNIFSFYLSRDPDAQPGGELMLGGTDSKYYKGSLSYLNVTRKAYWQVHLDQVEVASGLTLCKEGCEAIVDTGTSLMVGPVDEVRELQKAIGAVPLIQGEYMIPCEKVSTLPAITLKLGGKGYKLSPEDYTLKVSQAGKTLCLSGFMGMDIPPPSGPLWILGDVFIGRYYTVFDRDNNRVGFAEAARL

[4] = biological target: T4, HeLa cell extract proteins (Homo sapiens, UniProt Q9Y6K9)
T4 construct: endogenous in cells; host or cells: HeLa cell extract
T4 sequence (Q9Y6K9 whole entry): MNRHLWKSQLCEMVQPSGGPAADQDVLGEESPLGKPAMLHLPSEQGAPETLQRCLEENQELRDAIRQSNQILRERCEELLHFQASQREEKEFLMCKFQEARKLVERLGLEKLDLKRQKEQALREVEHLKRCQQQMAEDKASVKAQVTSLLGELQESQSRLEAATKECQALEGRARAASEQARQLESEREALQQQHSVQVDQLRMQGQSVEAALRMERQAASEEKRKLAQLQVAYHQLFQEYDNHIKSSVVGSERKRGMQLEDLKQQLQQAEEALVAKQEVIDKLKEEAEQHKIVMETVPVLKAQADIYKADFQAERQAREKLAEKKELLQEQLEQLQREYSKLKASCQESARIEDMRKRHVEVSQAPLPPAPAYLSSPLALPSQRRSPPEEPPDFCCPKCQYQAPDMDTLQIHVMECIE

[5] = biological target: T5, HeLa cell extract proteins (Homo sapiens, UniProt P32119)
T5 construct: endogenous in cells; host or cells: HeLa cell extract
T5 sequence (P32119 1-198): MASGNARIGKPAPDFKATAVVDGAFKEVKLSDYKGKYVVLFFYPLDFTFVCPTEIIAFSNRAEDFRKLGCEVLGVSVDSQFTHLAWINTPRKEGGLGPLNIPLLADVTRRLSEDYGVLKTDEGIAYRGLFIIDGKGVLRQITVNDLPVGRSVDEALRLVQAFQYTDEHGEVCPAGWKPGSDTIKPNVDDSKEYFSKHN

[6] = biological target: T6, HeLa cell extract proteins (Homo sapiens, UniProt P02786)
T6 construct: endogenous in cells; host or cells: HeLa cell extract
T6 sequence (P02786 whole entry): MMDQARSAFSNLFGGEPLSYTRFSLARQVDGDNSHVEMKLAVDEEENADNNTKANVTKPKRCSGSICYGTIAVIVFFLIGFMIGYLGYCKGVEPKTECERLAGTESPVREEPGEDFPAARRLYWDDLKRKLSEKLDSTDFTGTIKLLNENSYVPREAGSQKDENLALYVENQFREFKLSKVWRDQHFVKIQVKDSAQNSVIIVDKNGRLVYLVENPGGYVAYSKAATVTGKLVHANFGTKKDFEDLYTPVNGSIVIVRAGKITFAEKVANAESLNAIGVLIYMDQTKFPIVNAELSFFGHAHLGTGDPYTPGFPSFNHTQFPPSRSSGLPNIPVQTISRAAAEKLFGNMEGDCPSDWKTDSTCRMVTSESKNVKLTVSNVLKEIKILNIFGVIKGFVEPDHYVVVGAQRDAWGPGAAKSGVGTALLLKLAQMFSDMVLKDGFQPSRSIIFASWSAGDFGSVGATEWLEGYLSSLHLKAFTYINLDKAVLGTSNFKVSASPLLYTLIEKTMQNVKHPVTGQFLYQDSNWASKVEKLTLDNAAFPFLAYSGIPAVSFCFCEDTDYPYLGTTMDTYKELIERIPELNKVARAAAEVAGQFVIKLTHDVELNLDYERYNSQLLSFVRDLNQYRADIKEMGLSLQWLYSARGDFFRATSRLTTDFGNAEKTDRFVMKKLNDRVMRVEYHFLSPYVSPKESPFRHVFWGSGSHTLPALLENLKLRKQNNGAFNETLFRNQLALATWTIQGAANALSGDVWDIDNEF

[7] = biological target: T7, HeLa cell extract proteins (Homo sapiens, UniProt P14324)
T7 construct: endogenous in cells; host or cells: HeLa cell extract
T7 sequence (P14324 1-419): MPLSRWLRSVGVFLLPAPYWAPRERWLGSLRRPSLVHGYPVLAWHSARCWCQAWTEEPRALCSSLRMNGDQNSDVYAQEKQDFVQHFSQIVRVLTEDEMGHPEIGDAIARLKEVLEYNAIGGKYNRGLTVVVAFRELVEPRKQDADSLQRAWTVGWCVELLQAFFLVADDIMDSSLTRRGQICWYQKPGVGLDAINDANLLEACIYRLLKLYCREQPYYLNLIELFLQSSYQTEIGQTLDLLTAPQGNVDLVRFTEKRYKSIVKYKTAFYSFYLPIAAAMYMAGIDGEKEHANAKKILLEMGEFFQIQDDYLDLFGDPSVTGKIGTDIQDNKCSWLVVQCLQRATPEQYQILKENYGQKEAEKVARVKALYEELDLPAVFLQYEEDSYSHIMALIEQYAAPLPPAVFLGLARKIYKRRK

[8] = biological target: T8, HeLa cell extract proteins (Homo sapiens, UniProt Q99497)
T8 construct: endogenous in cells; host or cells: HeLa cell extract
T8 sequence (Q99497 1-189): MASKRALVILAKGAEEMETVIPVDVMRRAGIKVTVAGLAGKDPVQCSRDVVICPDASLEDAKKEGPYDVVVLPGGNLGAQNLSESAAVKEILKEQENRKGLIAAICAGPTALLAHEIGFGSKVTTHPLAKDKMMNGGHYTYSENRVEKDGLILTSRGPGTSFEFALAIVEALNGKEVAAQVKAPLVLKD

[9] = biological target: T9, HeLa cell extract proteins (Homo sapiens, UniProt Q5JVF3)
T9 construct: endogenous in cells; host or cells: HeLa cell extract
T9 sequence (Q5JVF3 whole entry): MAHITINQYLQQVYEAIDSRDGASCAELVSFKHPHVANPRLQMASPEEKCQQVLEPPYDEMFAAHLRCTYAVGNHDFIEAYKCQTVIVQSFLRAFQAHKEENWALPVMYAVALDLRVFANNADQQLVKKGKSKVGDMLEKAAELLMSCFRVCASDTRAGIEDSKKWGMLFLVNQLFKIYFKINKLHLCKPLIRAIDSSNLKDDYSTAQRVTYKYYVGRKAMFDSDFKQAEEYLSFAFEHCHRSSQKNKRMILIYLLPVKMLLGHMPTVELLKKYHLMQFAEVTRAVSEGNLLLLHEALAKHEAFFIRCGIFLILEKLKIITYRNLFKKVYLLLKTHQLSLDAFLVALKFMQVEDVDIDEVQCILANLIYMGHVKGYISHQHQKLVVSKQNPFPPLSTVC

[10] = biological target: T10, HeLa cell extract proteins (Homo sapiens, UniProt Q9NVI7)
T10 construct: endogenous in cells; host or cells: HeLa cell extract
T10 sequence (Q9NVI7 1-586): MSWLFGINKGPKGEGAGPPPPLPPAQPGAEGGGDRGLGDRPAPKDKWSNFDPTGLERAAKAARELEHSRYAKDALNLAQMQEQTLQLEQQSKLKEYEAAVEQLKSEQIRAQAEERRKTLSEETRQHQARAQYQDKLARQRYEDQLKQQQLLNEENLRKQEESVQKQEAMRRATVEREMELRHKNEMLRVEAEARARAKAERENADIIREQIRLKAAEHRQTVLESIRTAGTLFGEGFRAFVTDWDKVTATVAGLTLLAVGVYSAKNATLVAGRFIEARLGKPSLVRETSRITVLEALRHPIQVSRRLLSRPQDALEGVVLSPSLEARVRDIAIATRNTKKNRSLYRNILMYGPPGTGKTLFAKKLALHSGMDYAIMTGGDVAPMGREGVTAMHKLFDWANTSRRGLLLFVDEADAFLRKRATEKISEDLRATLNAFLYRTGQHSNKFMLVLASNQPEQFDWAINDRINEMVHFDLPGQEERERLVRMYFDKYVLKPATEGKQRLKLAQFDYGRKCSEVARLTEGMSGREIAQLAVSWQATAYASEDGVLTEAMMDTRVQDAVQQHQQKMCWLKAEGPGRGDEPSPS

[11] = biological target: T11, HeLa cell extract proteins (Homo sapiens, UniProt P18669)
T11 construct: endogenous in cells; host or cells: HeLa cell extract
T11 sequence (P18669 whole entry): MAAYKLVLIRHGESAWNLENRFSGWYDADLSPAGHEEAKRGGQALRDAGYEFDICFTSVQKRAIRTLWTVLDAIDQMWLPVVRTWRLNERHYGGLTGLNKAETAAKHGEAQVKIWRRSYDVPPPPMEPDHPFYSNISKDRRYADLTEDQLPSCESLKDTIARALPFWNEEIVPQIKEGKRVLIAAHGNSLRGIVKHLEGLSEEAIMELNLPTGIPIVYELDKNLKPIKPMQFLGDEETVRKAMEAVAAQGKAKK

[12] = biological target: T12, HeLa cell extract proteins (Homo sapiens, UniProt P49336)
T12 construct: endogenous in cells; host or cells: HeLa cell extract
T12 sequence (P49336 whole entry): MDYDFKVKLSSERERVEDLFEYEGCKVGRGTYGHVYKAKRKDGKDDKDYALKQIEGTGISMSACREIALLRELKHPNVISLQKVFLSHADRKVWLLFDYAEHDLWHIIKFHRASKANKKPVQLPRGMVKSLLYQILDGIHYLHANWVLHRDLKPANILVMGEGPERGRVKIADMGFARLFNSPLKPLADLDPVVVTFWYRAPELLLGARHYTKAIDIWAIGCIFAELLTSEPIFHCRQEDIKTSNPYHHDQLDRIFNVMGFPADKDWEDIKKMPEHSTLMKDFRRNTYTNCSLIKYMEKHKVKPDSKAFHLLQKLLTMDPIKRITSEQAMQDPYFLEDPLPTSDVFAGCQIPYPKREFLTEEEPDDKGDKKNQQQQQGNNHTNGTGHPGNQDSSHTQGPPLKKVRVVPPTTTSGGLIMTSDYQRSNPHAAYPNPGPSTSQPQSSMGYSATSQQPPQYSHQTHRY

[13] = biological target: T13, HeLa cell extract proteins (Homo sapiens, UniProt P63208)
T13 construct: endogenous in cells; host or cells: HeLa cell extract
T13 sequence (P63208 whole entry): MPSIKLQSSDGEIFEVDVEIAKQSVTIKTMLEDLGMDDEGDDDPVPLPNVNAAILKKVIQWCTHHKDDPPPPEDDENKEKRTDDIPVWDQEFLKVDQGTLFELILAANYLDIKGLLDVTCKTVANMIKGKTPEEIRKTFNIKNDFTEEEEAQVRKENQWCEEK

[14] = biological target: T14, HeLa cell extract proteins (Homo sapiens, UniProt P28074)
T14 construct: endogenous in cells; host or cells: HeLa cell extract
T14 sequence (P28074 60-263): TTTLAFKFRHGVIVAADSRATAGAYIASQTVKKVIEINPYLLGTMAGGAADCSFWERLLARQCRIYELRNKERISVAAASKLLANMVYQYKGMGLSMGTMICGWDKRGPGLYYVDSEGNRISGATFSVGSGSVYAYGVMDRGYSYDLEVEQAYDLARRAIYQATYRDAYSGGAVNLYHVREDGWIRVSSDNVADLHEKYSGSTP

[15] = HeLa, protein IKBKG (INHIBITOR OF KAPPAB KINASE GAMMA)
[16] = HeLa, protein DJ-1 (PROTEIN DJ-1.)
[17] = HeLa, protein PGAM1 (SIMILAR TO PHOSPHOGLYCERATE MUTASE 1 ISOFORM 1.)

T1 sequence (Q99873 whole entry): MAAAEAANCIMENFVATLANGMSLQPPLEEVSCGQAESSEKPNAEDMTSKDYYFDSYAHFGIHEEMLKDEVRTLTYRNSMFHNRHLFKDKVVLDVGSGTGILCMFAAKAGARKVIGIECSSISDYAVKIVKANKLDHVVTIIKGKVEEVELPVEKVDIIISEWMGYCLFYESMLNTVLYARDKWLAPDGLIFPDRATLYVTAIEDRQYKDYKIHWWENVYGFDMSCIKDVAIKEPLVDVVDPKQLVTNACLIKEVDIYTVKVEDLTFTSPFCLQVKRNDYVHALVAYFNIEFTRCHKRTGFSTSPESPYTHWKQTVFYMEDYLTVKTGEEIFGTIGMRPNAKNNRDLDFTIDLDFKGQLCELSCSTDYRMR

Structure (SMILES) | fold changes relative to vehicle control ([1]; HeLa, protein PRMT1) | fold changes relative to vehicle control ([2]; protein POLR2B, HeLa) | fold changes relative to vehicle control ([3]; HeLa, captured protein CTSD) | fold changes relative to vehicle control [4, 15] | fold changes relative to vehicle control ([5]; HeLa, captured protein PRDX2) | fold changes relative to vehicle control ([6]; HeLa, protein TFRC) | fold changes relative to vehicle control ([7]; HeLa, captured protein FDPS) | fold changes relative to vehicle control ([8]; HeLa, captured protein DJ-1) | fold changes relative to vehicle control ([9]; protein PCID2, HeLa) | fold changes relative to vehicle control ([10]; HeLa, protein ATAD3A) | fold changes relative to vehicle control ([11]; HeLa, protein PGAM1) | fold changes relative to vehicle control ([12]; protein CDK8, HeLa) | fold changes relative to vehicle control ([13]; HeLa, captured protein SKP1) | fold changes relative to vehicle control ([14]; HeLa, protein PSMB5) | fold changes relative to vehicle control ([1]; protein PRMT1, HeLa) | fold changes relative to vehicle control ([2]; HeLa, protein POLR2B) | fold changes relative to vehicle control ([3]; protein CTSD, HeLa) | fold changes relative to vehicle control ([4]; captured protein IKBKG, HeLa) | fold changes relative to vehicle control ([5]; protein PRDX2, HeLa) | fold changes relative to vehicle control ([6]; protein TFRC, HeLa) | also measured
Nc1nc2c(c(=O)[nH]1)N(C=O)C(CNc1ccc(C(=O)N[C@@H](CCC(=O)O)C(=O)O)cc1)CN2 (some centres unmarked) [LEU, leucovorin] | 0.94 | 0.8 | 0.96 | 0.98 | 1.05 | 0.94 | 1.05 | 1.1 | 0.74 | 0.98 | 1.05 | 1.14 | 1.09 | 0.97 | – | – | – | – | – | – | –
Nc1nc2[nH]cc(CCc3ccc(C(=O)N[C@@H](CCC(=O)O)C(=O)O)cc3)c2c(=O)[nH]1 [PTX, pemetrexed] | – | – | – | – | – | – | – | – | – | – | – | – | – | – | – | – | – | – | – | – | fold changes relative to vehicle control [1]: 0.93; fold changes relative to vehicle control [2]: 0.89; fold changes relative to vehicle control [3]: 1; fold changes relative to vehicle control [4]: 1.02; fold changes relative to vehicle control [5]: 1.17; fold changes relative to vehicle control [6]: 1.01; fold changes relative to vehicle control [7]: 1.08; fold changes relative to vehicle control [8]: 1.28; fold changes relative to vehicle control [9]: 0.68; fold changes relative to vehicle control [10]: 1.12; fold changes relative to vehicle control [11]: 1.24; fold changes relative to vehicle control [12]: 0.77; fold changes relative to vehicle control [13]: 1.13; fold changes relative to vehicle control [14]: 1
CCCCCCOc1ccc(Cc2cnc(N)nc2N)cc1 [compound 1] | – | – | – | – | – | – | – | – | – | 1.13 | – | – | – | – | 0.95 | 0.94 | 1.14 | 1.08 | 1.36 | 1.26 | fold changes relative to vehicle control ([7]; protein FDPS, HeLa): 1.17; fold changes relative to vehicle control [8, 16]: 1.34 fold; fold changes relative to vehicle control ([9]; HeLa, protein PCID2): 1.13; fold changes relative to vehicle control [11, 17]: 1.5 fold; fold changes relative to vehicle control ([12]; captured protein CDK8, HeLa): 0.96; fold changes relative to vehicle control ([13]; captured protein SKP1, HeLa): 1.04; fold changes relative to vehicle control ([14]; protein PSMB5, HeLa): 1.11
CCCCCCOc1cccc(Cc2cnc(N)nc2N)c1 [compound 2] | – | – | – | – | – | – | – | – | – | 1.15 | – | – | – | – | 1.24 | 1.42 | 1.26 | 1.1 | 2.19 | 1.96 | fold changes relative to vehicle control ([7]; protein FDPS, HeLa): 2.08; fold changes relative to vehicle control [8, 16]: 2.24 fold; fold changes relative to vehicle control ([9]; HeLa, protein PCID2): 0.97; fold changes relative to vehicle control [11, 17]: 2.64 fold; fold changes relative to vehicle control ([12]; captured protein CDK8, HeLa): 0.8; fold changes relative to vehicle control ([13]; captured protein SKP1, HeLa): 1.21; fold changes relative to vehicle control ([14]; protein PSMB5, HeLa): 1.24
Nc1nc2cccc(-c3ccccc3)c2n1Cc1ccc(Cl)c(Cl)c1 [compound 3] | – | – | – | – | – | – | – | – | – | 1.05 | – | – | – | – | 0.93 | 0.98 | 0.95 | 0.9 | 0.89 | 0.99 | fold changes relative to vehicle control ([7]; protein FDPS, HeLa): 0.87; fold changes relative to vehicle control [8, 16]: 0.85 fold; fold changes relative to vehicle control ([9]; HeLa, protein PCID2): 1.2; fold changes relative to vehicle control ([11]; HeLa, protein PGAM1 (SIMILAR TO PHOSPH[…] 1 ISOFORM 1.)): 0.9 fold; fold changes relative to vehicle control ([12]; captured protein CDK8, HeLa): 1.03; fold changes relative to vehicle control ([13]; captured protein SKP1, HeLa): 0.87; fold changes relative to vehicle control ([14]; protein PSMB5, HeLa): 0.95
NCCOCCOCC(=O)Nc1nc2ncc(CNc3ccc(C(=O)NC(CCC(=O)O)C(=O)O)cc3)nc2c(=O)[nH]1 (centres unmarked) [compound 6] | 0.95 | 1.07 | 1.12 | 0.96 | 1.18 | 1.09 | 1.29 | 1.36 | 0.91 | 1.17 | 1.41 | 0.9 | 0.97 | 1.05 | – | – | – | – | – | – | –
NCCCNc1ccc(C(=O)NC(CCC(=O)O)C(=O)O)cc1 (centres unmarked) [compound 7] | 0.91 | 0.91 | 0.96 | 1.15 | 0.89 | 0.87 | 0.97 | 1.06 | 0.75 | 1.13 | 0.99 | 1.01 | 1.01 | 1 | – | – | – | – | – | – | –
